Measured values: ChEMBL document CHEMBL1201862, “PubChem BioAssay data set” (2004)
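Where inhibition never reached the appropriate level, the endpoint shown equals the highest concentration tested. Otherwise, values were interpolated linearly from a five-concentration, 48-hour dose response in 96-well plates. Here, GI50 denotes the concentration required for 50% inhibition of growth.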 Active and inactive are the calls of the source. No stated cut-off is given here; in the data, active = GI50 up to about 1.1 µM and inactive = higher. Residues, ends and D or L forms follow the SMILES beside them.

How the values were obtained:
Test in all cases: inhibition of tumour cell growth, NCI panel, 48 h
SNB-19 = system: SNB-19
HCT-116 = system: HCT-116
CAKI-1 = system: CAKI-1
UO-31 = system: UO-31
MOLT-4 = system: MOLT-4
786-0 = system: 786-0
HCT-15 = system: HCT-15
UACC-62 = system: UACC-62
UACC-257 = system: UACC-257
SK-OV-3 = system: SK-OV-3
LOX IMVI = system: LOX IMVI
SK-MEL-28 = system: SK-MEL-28
BT-549 = system: BT-549
T47D = system: T47D
CCRF-CEM = system: CCRF-CEM
RXF 393 = system: RXF 393
NCI-H226 = system: NCI-H226
EKVX = system: EKVX
HT-29 = system: HT-29
Hs-578T = system: Hs-578T

| Compound | GI50 (SNB-19) | GI50 (HCT-116) | GI50 (CAKI-1) | GI50 (UO-31) | GI50 (MOLT-4) | GI50 (786-0) | GI50 (HCT-15) [µM] | GI50 (UACC-62) | GI50 (UACC-257) | GI50 (SK-OV-3) | GI50 (LOX IMVI) | GI50 (SK-MEL-28) | GI50 (BT-549) | GI50 (T47D) | GI50 (CCRF-CEM) | GI50 (RXF 393) | GI50 (NCI-H226) | GI50 (EKVX) | GI50 (HT-29) | GI50 (Hs-578T) |
| --- | --- | --- | --- | --- | --- | --- | --- | --- | --- | --- | --- | --- | --- | --- | --- | --- | --- | --- | --- | --- |
| CCCCc1ccc(-n2sc3ncc(-c4ccccc4)cc3c2=O)cc1 | > 100 µM (inactive) | > 100 µM (inactive) | 64.3 µM (inactive) | > 100 µM (inactive) | > 100 µM (inactive) | > 100 µM (inactive) | > 100 | > 100 µM (inactive) | > 10 µM (inactive) | > 100 µM (inactive) | > 100 µM (inactive) | > 100 µM (inactive) | 59.6 µM (inactive) | 22.6 µM (inactive) | > 100 µM (inactive) | > 100 µM (inactive) | > 100 µM (inactive) | > 100 µM (inactive) |  |  |
| Cc1ccnc(Nc2[nH]c(C(=O)c3ccc(Cl)cc3)c(N)c2C(=S)Nc2ccccc2)c1 | 23.4 µM (inactive) | 14.2 µM (inactive) | 27.9 µM (inactive) | 18 µM (inactive) | 10.9 µM (inactive) | 19.1 µM (inactive) | 16.1 | 10.6 µM (inactive) | 15.6 µM (inactive) | 13.8 µM (inactive) | 14.8 µM (inactive) | 18.6 µM (inactive) | 14.2 µM (inactive) | 19.7 µM (inactive) | 25.8 µM (inactive) | 15.9 µM (inactive) | 17.7 µM (inactive) | 14.5 µM (inactive) | 14.9 µM (inactive) |  |
| COC(=O)C(C)(/N=C/c1ccccc1)c1ccccc1 (configuration not stated) | > 100 µM (inactive) | > 100 µM (inactive) | > 100 µM (inactive) | > 100 µM (inactive) | > 100 µM (inactive) | > 100 µM (inactive) | > 100 | > 100 µM (inactive) | > 100 µM (inactive) | > 100 µM (inactive) | > 100 µM (inactive) | > 100 µM (inactive) |  | > 100 µM (inactive) | > 100 µM (inactive) | > 100 µM (inactive) | > 100 µM (inactive) | > 100 µM (inactive) | > 100 µM (inactive) | > 100 µM (inactive) |
| CCOc1ccccc1/C=C1\NC(=O)N(/C=C2\C(=O)Oc3ccccc3C2=O)C1=O | 61.7 µM (inactive) | 39.1 µM (inactive) | 99.1 µM (inactive) | 23.1 µM (inactive) | 26.7 µM (inactive) | 50.9 µM (inactive) | 53.8 | 32.8 µM (inactive) | 40.1 µM (inactive) | 59.7 µM (inactive) | 63.7 µM (inactive) | 62.4 µM (inactive) | 50.9 µM (inactive) |  | 24.2 µM (inactive) | 9.82 µM (inactive) | 35.5 µM (inactive) | 51.6 µM (inactive) | 65.5 µM (inactive) | 46.7 µM (inactive) |
| COc1cc(/C=C2/C(=O)N/C(=N\C(C)=O)N2C)ccc1OC(C)=O | > 100 µM (inactive) | > 100 µM (inactive) | > 100 µM (inactive) | > 100 µM (inactive) | > 100 µM (inactive) | > 100 µM (inactive) | > 100 | > 100 µM (inactive) | > 100 µM (inactive) | > 100 µM (inactive) | > 100 µM (inactive) | > 100 µM (inactive) | > 100 µM (inactive) | > 100 µM (inactive) |  |  | > 100 µM (inactive) | > 100 µM (inactive) | > 100 µM (inactive) |  |
| Nc1ccccc1CC(O)C(=O)O (configuration not stated) | > 100 µM (inactive) | > 100 µM (inactive) | > 100 µM (inactive) |  | > 100 µM (inactive) | > 100 µM (inactive) | > 100 | > 100 µM (inactive) | > 100 µM (inactive) | > 100 µM (inactive) | > 100 µM (inactive) | > 100 µM (inactive) |  | > 100 µM (inactive) | > 100 µM (inactive) | > 100 µM (inactive) | > 100 µM (inactive) | > 100 µM (inactive) | > 100 µM (inactive) | > 100 µM (inactive) |
| COc1ccc(C=C2C(C)=NN(c3cccc(Cl)c3)C23C(Cl)C(=O)N3c2nc3ccccc3s2)cc1 (configuration not stated) |  | 15.5 µM (inactive) | 23.2 µM (inactive) | 16.3 µM (inactive) | 15.9 µM (inactive) | 16 µM (inactive) | 16.8 |  | 24.9 µM (inactive) | 28.6 µM (inactive) | 17.7 µM (inactive) | 9.25 µM (inactive) |  | 24.6 µM (inactive) | 3.45 µM (inactive) | 12.7 µM (inactive) | 21.4 µM (inactive) | 27.3 µM (inactive) | 9.51 µM (inactive) | 14.4 µM (inactive) |
| COC(=O)c1c2c(cc3c1CC1(Cc4cc5c(cc4C1)CCCC5)C3)CCCC2 |  | 15.3 µM (inactive) |  | > 100 µM (inactive) | > 100 µM (inactive) | > 100 µM (inactive) | > 100 | > 100 µM (inactive) | > 100 µM (inactive) | > 100 µM (inactive) | > 100 µM (inactive) |  |  | > 100 µM (inactive) | 12 µM (inactive) | 25.8 µM (inactive) |  | > 100 µM (inactive) | > 100 µM (inactive) | > 100 µM (inactive) |
| Cc1cc(-c2cccc3ccccc23)c(C#N)c(=S)n1C1OC(CO)C(O)C(O)C1O (configuration not stated) |  | > 100 µM (inactive) | > 100 µM (inactive) |  | > 100 µM (inactive) | > 100 µM (inactive) | > 100 | > 100 µM (inactive) | > 100 µM (inactive) | > 100 µM (inactive) | > 100 µM (inactive) |  |  | 52.7 µM (inactive) | 71.1 µM (inactive) | > 100 µM (inactive) | 50 µM (inactive) | > 100 µM (inactive) | > 100 µM (inactive) | 86.5 µM (inactive) |
| NC1CNC(=O)c2cscc21 (configuration not stated) | > 100 µM (inactive) | > 100 µM (inactive) | > 100 µM (inactive) | > 100 µM (inactive) | > 100 µM (inactive) | > 100 µM (inactive) | > 100 | > 100 µM (inactive) | > 100 µM (inactive) |  | > 100 µM (inactive) | > 100 µM (inactive) | > 100 µM (inactive) |  | > 100 µM (inactive) | > 100 µM (inactive) |  | > 100 µM (inactive) | > 100 µM (inactive) | > 100 µM (inactive) |
| Cc1cc(C)n(C(=O)CSc2nc3ccc(I)cc3c(=O)n2Cc2ccccc2)n1 | 43.1 µM (inactive) | 57 µM (inactive) | 4.63 µM (inactive) |  | > 100 µM (inactive) | 28.3 µM (inactive) | 30.4 | 80.5 µM (inactive) | 33.9 µM (inactive) | 58.9 µM (inactive) | > 100 µM (inactive) | > 100 µM (inactive) |  | 23.2 µM (inactive) | 67.1 µM (inactive) | 26.9 µM (inactive) | 62.7 µM (inactive) | 24 µM (inactive) | > 100 µM (inactive) | 20 µM (inactive) |
| O=C(CBr)c1ccc2cc(Br)c3ccccc3c2c1 | 31.9 µM (inactive) | 40.3 µM (inactive) | 18.2 µM (inactive) | 25.6 µM (inactive) | 4.25 µM (inactive) | 37.6 µM (inactive) | 36.1 | 14.1 µM (inactive) | 24 µM (inactive) |  | 36.3 µM (inactive) | 25.1 µM (inactive) | 18.2 µM (inactive) |  | 33.3 µM (inactive) | 18.3 µM (inactive) | 9.33 µM (inactive) | 24.5 µM (inactive) | 32.3 µM (inactive) | 25.8 µM (inactive) |
| c1nc(OCC2CCCCC2)c2nc[nH]c2n1 | > 100 µM (inactive) | 35.7 µM (inactive) | > 100 µM (inactive) | 42.9 µM (inactive) | 31.6 µM (inactive) | > 100 µM (inactive) | 46.3 | 47.1 µM (inactive) | 91.8 µM (inactive) | 43.7 µM (inactive) | 34.9 µM (inactive) | > 100 µM (inactive) | > 100 µM (inactive) |  | > 100 µM (inactive) | 60.7 µM (inactive) | 26.9 µM (inactive) | 53 µM (inactive) | 49.9 µM (inactive) | > 100 µM (inactive) |
| NCCNCCNc1ccc(NCCNCCN)c2c1C(=O)c1c(O)ccc(O)c1C2=O | > 100 µM (inactive) | > 100 µM (inactive) | > 100 µM (inactive) | > 100 µM (inactive) | 14 µM (inactive) | > 100 µM (inactive) | > 100 | > 100 µM (inactive) | > 100 µM (inactive) | > 100 µM (inactive) | > 100 µM (inactive) | > 100 µM (inactive) | > 100 µM (inactive) |  | 38.9 µM (inactive) | > 100 µM (inactive) | > 100 µM (inactive) | > 100 µM (inactive) | > 100 µM (inactive) | 68.7 µM (inactive) |
| CCC(C)C(NC(=O)C(CCCCN)NC(=O)C(NC(=O)C(CCC(N)=O)NC(=O)C(N)CCCNC(=N)N)C(C)CC)C(=O)NC(Cc1c[nH]c2ccccc12)C(=O)NC(Cc1ccccc1)C(=O)NC(CCC(N)=O)C(=O)NC(CC(N)=O)C(=O)NC(CCCNC(=N)N)C(=O)NC(CCCNC(=N)N)C(=O)NC(CCSC)C(=O)NC(CCCCN)C(=O)NC(Cc1c[nH]c2ccccc12)C(=O)NC(CCCCN)C(=O)NC(CCCCN)C(=O)N1CCCC1C(=O)NC(C)C(=O)NC(CCCCN)C(=O)NC(CCCNC(=N)N)C(=O)NC(CCCCN)C(=O)NC(CC(C)C)C(=O)NC(Cc1ccccc1)C(=O)NCC(=O)O (configuration not stated) (H-RQIKIWFQNRRMKWKKPAKRKLFG-OH; configuration not given here) | > 25 µM (inactive) | 16.3 µM (inactive) | > 25 µM (inactive) | > 25 µM (inactive) | > 25 µM (inactive) | 17.5 µM (inactive) | > 25 |  | 21.9 µM (inactive) | > 25 µM (inactive) | > 25 µM (inactive) | > 25 µM (inactive) | > 25 µM (inactive) |  | 12.4 µM (inactive) | > 25 µM (inactive) | > 25 µM (inactive) | > 25 µM (inactive) | > 25 µM (inactive) | 21.1 µM (inactive) |
